# Data: patent US20240228572A1 (i2o Therapeutics, Inc., priority 2020, published 2024)
# *1 amine or outer side, *2 acyl side, *3 side chain or, on linkers, in order; H or OH if unused. Where a SMILES comes first, the peptide text is derived from it. Side-chain parts run from the residue outwards. [ ]: non-standard residue; d: D form. The star is where a group is joined. C20 diacid = O=C(O)CCCCCCCCCCCCCCCCCCC(=O)*; γGlu = O=C(O)[C@H](CCC(=O)[*:2])N[*:1]; AEEA = NCCOCCOCC(=O)O; Aib = CC(C)(N)C(=O)O
# How the values were obtained:
# [1] = target: T1, human GLP-1 receptor (GLP-1R) (Homo sapiens, UniProt P43220); assay: cAMP accumulation assay, CHO-K1 cells stably expressing human GLP-1R; format: cell-based
# T1 construct: expressed in transfected cells
# T1 sequence (P43220 24-463): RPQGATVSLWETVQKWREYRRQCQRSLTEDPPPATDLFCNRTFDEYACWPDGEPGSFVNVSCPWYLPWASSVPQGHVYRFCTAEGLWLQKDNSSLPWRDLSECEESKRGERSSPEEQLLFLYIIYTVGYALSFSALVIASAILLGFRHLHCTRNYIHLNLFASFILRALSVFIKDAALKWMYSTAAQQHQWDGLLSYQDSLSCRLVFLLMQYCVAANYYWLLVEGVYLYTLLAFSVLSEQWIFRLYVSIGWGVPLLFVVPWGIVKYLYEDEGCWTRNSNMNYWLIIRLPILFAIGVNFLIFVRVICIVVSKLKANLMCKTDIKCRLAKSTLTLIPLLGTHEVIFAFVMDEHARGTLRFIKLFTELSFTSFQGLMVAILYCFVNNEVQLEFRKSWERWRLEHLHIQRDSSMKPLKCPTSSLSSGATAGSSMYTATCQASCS
# [2] = Metabolic stability in human kidney brush border membranes (kBBM); format: in vitro ADME; settings: 1 mcM peptide, 50 mcg protein/mL, 37° C., pH 7.4, read-out: kBBM t½
# Experimental: (§1) Brush border membranes from rat and human kidney tissue were prepared via centrifugation and stored at −70° C. Thawed stocks of rat or human kBBM were diluted to the appropriate concentration in 25 mM HEPES buffer (pH 7.4) containing 1% casein and aliquoted into a 96-well plate. The kBBM solutions were pre-warmed for 10 minutes at 37° C. Reactions were initiated by the addition of test peptide (1 mcM final concentration) also dissolved in 25 mM HEPES buffer (pH 7.4) containing 1% casein. The final concentration of kBBM in each incubation was 50 mcg protein/mL. Reactions were maintained at 37° C. in a shaking water bath. At 0, 0.25, 0.5, 1.0, 2.0, and 4.0 h post-initiation, 30 mcL of the reaction mixture was removed and placed into a 96-well plate containing 120 mcL of ice-cold methanol containing 2.5% formic acid. Quenched samples were centrifuged at 2178×g for 10 min and then a portion of the supernatants were transferred to a clean 96-well plate and diluted 1:1 with water.
# [3] = Metabolic stability in monkey kidney brush border membranes (kBBM); format: in vitro ADME; settings: pH 7.4, read-out: kBBM t½
# Experimental: as §1
# rat GCGR = target: T2, rat GCGR (Rattus norvegicus, UniProt P30082); assay: cAMP accumulation assay, CHO-K1 cells expressing rat GCGR; format: cell-based
# T2 construct: A cDNA fragment encoding the full-length open reading frame of the rat GCGR; expressed in transfected cells; host or cells: CHO-K1, pcDNA3.1+, Lipofectamine 2000
# T2 sequence (P30082 27-485): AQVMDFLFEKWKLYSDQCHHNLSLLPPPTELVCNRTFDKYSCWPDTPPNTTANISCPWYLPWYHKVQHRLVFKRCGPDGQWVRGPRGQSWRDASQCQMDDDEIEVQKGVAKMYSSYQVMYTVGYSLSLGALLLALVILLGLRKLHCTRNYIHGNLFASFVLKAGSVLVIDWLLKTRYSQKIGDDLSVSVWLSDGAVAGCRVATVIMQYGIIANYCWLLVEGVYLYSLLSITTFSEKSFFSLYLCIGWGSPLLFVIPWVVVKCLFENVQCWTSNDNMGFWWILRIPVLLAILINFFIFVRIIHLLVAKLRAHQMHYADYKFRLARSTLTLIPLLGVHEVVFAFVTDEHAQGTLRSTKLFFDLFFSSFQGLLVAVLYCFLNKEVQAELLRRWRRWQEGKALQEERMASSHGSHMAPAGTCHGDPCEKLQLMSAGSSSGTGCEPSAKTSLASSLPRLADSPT
# From the text: In the presence of the non-specific cAMP/cGMP phosphodiesterase inhibitor, 3-isobutyl-1-methylxanthine (IBMX), accumulating cAMP can be measured in vitro using common detection methods. Thus, it is possible to estimate an in vitro potency (pEC50) for peptides activating each of these receptors using fit dose-response curves for cAMP accumulation.
# A cDNA fragment encoding the full-length open reading frame of the cynomolgus monkey GLP-1R (Genebank accession #XM_028847603 was cloned into pcDNA3.1+ for expression in CHO-K1 cells. A cDNA fragment encoding the full-length open reading frame of the human GCGR (Genebank accession #NM_000160 was cloned into pcDNA3.1+ for expression in CHO-K1 cells. A cDNA fragment encoding the full-length open reading frame of the rat GCGR (Genebank accession #NM_12091 was cloned into pcDNA3.1+ for expression in CHO-K1 cells. A cDNA fragment encoding the full-length open reading frame of the cynomolgus monkey GCGR (Genebank accession #XM_005585255 was cloned into pcDNA3.1+ for expression in CHO-K1 cells. […]
# Peptides were serially diluted 4-fold in assay buffer to final concentrations ranging from 1×10^−9 M to 9.5×10^−16 M. Two assay controls consisting of 50 mcM forskolin (cAMP system maximum) or assay buffer only (cAMP system minimum) were also prepared. […] Plates were read on an Envision fluorescent plate reader (PerkinElmer). […]
# serum albumin = serum albumin (Rattus norvegicus, UniProt P02770); assay: Fraction unbound (fu) in plasma by surface plasmon resonance, rat; format: in vitro ADME; settings: SPR binding to serum albumin
# Chain of serum albumin (P02770 25-608): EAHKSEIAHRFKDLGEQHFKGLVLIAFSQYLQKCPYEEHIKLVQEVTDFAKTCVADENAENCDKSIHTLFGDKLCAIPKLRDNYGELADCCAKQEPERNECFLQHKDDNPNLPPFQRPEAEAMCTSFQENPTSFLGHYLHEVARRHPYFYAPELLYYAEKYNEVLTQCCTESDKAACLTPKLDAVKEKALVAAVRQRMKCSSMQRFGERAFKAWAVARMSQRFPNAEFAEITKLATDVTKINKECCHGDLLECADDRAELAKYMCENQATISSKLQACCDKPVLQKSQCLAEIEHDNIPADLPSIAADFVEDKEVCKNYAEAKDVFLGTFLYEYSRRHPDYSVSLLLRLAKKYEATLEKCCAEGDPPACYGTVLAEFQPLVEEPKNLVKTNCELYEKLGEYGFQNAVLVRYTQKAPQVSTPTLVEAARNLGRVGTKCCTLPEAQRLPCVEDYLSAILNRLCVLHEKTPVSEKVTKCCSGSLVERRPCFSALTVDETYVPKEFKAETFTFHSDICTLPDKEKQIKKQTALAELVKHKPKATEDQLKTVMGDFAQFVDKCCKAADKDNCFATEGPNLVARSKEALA
# Experimental: Conventional methods of measuring plasma protein binding, such as equilibrium dialysis, ultrafiltration and ultracentrifugation, are not reliable with peptides because of their tendency to adsorb to the surface of plastic tubing, dialysis membranes and molecular weight cut-off filters. As a result, the extent to which acylated peptides bind to serum albumin was evaluated using surface plasmon resonance (SPR).
smiles,measurement,setting,value
CC(C)C[C@H](NC(=O)[C@H](Cc1ccc(O)cc1)NC(=O)[C@H](CCCCN)NC(=O)[C@H](CO)NC(=O)[C@H](Cc1ccc(O)cc1)NC(=O)[C@H](CC(=O)O)NC(=O)[C@H](CO)NC(=O)[C@@H](NC(=O)[C@H](Cc1ccccc1)NC(=O)[C@@H](NC(=O)CNC(=O)[C@H](Cc1c[nH]cn1)NC(=O)[C@H](CO)NC(=O)[C@@H](N)Cc1ccc(O)cc1)[C@@H](C)O)[C@@H](C)O)C(=O)N[C@@H](CC(=O)O)C(=O)NC(C)(C)C(=O)N[C@@H](CCCCN)C(=O)N[C@@H](Cc1ccc(O)cc1)C(=O)N[C@@H](C)C(=O)N[C@@H](CCC(N)=O)C(=O)N[C@@H](CCCCNC(=O)CC[C@H](NC(=O)CC[C@H](NC(=O)COCCOCCNC(=O)CCCCCCCCCCCCCCCCCCC(=O)O)C(=O)O)C(=O)O)C(=O)N[C@@H](Cc1ccccc1)C(=O)N[C@H](C(=O)NC(C)(C)C(=O)N[C@@H](Cc1c[nH]c2ccccc12)C(=O)N[C@@H](CC(C)C)C(=O)N[C@@H](CCC(=O)O)C(=O)N[C@@H](CC(=O)O)C(=O)N[C@@H](CCC(=O)O)C(=O)N1CCC[C@H]1C(=O)N[C@@H](CO)C(=O)N[C@@H](CO)C(=O)NCC(=O)N[C@@H](C)C(=O)N1CCC[C@H]1C(=O)N1CCC[C@H]1C(=O)N1CCC[C@H]1C(=O)N[C@@H](CO)C(=O)O)C(C)C [Compound A6] (H-YSHGTFTSDYSKYLD[Aib]KYAQK([γGlu-γGlu-AEEA-C20 diacid])FV[Aib]WLEDEPSSGAPPPS-OH; N-terminus assumed),EC50,[1],> 100 nM
same,Activity (as EC50 values) hGLP1R,"[1]; human GLP-1 receptor, Table 11",<7
same,half-life at 1 mcM,[2],> 72 h
same,half-life at 1 mcM,[3],> 12 h
same,EC50,rat GCGR,0.0501 nM
same,fraction unbound,serum albumin,0.0083
